PubChem BioAssay (NCI)
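Exposure lasted 48 hours, with cells grown in 96-well plates and compounds tested at five concentrations. At the GI50, growth is halved. At the TGI there is no net growth.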

How the values were obtained:
Assay in all cases: NCI-60 cell line screen, 48 h
SK-OV-3 ovarian = system: SK-OV-3 ovarian
NCI-H23 lung = system: NCI-H23 lung
OVCAR-5 ovarian = system: OVCAR-5 ovarian
SK-MEL-2 melanoma = system: SK-MEL-2 melanoma
DMS 114 small cell lung = system: DMS 114 small cell lung
HCC-2998 colon = system: HCC-2998 colon
SN12C renal = system: SN12C renal
SF-295 CNS = system: SF-295 CNS
TK-10 renal = system: TK-10 renal
MALME-3M melanoma = system: MALME-3M melanoma
SK-MEL-5 melanoma = system: SK-MEL-5 melanoma
A549 NSCLC = system: A549 NSCLC
786-0 renal = system: 786-0 renal
HOP-62 NSCLC = system: HOP-62 NSCLC
HT29 colon = system: HT29 colon
LXFL 529 NSCLC = system: LXFL 529 NSCLC
HCT-116 colon = system: HCT-116 colon
COLO 205 colon = system: COLO 205 colon
IGROV1 ovarian = system: IGROV1 ovarian
DLD-1 colon = system: DLD-1 colon
CAKI-1 renal = system: CAKI-1 renal
HOP-92 NSCLC = system: HOP-92 NSCLC
M14 melanoma = system: M14 melanoma
OVCAR-8 ovarian = system: OVCAR-8 ovarian
EKVX NSCLC = system: EKVX NSCLC
DMS 273 small cell lung = system: DMS 273 small cell lung
OVCAR-3 ovarian = system: OVCAR-3 ovarian
HCT-15 colon = system: HCT-15 colon
NCI-H460 lung = system: NCI-H460 lung
UACC-257 melanoma = system: UACC-257 melanoma
SW-620 colon = system: SW-620 colon
ACHN renal = system: ACHN renal
LOX IMVI melanoma = system: LOX IMVI melanoma
RPMI-8226 leukemia = system: RPMI-8226 leukemia
A498 renal = system: A498 renal
HL-60(TB) leukemia = system: HL-60(TB) leukemia
MOLT-4 leukemia = system: MOLT-4 leukemia
K-562 leukemia = system: K-562 leukemia
NCI-H522 lung = system: NCI-H522 lung
UACC-62 melanoma = system: UACC-62 melanoma
NCI-H226 lung = system: NCI-H226 lung
M19-MEL melanoma = system: M19-MEL melanoma
SF-268 CNS = system: SF-268 CNS
U251 CNS = system: U251 CNS
UO-31 renal = system: UO-31 renal
KM20L2 colon = system: KM20L2 colon
CCRF-CEM leukemia = system: CCRF-CEM leukemia
SK-MEL-28 melanoma = system: SK-MEL-28 melanoma
SNB-19 CNS = system: SNB-19 CNS
OVCAR-4 ovarian = system: OVCAR-4 ovarian
KM12 colon = system: KM12 colon
SNB-75 CNS = system: SNB-75 CNS
SF-539 CNS = system: SF-539 CNS
RXF 393 renal = system: RXF 393 renal
SR leukemia = system: SR leukemia

## [Cl-].[Nd+3].[O-]/N=C(\c1ccccc1)c1ccccn1.[O-]/N=C(\c1ccccc1)c1ccccn1.[O-]/N=C(\c1ccccc1)c1ccccn1
SK-OV-3 ovarian
  GI50: 37.1 µM
  TGI: > 100 µM
NCI-H23 lung
  GI50: 30.3 µM
  TGI: 82.7 µM
OVCAR-5 ovarian
  GI50: 31.2 µM
  TGI: > 100 µM
SK-MEL-2 melanoma
  GI50: 28 µM
  TGI: 66.4 µM
DMS 114 small cell lung
  GI50: 24.6 µM
  TGI: 79 µM
HCC-2998 colon
  GI50: 36.3 µM
  TGI: > 100 µM
SN12C renal
  GI50: 37.2 µM
  TGI: > 100 µM
SF-295 CNS
  GI50: 22.3 µM
  TGI: > 100 µM
TK-10 renal
  GI50: 37.5 µM
  TGI: > 100 µM
MALME-3M melanoma
  GI50: 30 µM
  TGI: 96.9 µM
SK-MEL-5 melanoma
  GI50: 22.6 µM
  TGI: 55.4 µM
A549 NSCLC
  GI50: 33.7 µM
  TGI: > 100 µM
786-0 renal
  GI50: 31 µM
  TGI: 82.2 µM
HOP-62 NSCLC
  GI50: 24.9 µM
  TGI: > 100 µM
HT29 colon
  GI50: 54.2 µM
  TGI: > 100 µM
LXFL 529 NSCLC
  GI50: 40.4 µM
  TGI: > 100 µM
HCT-116 colon
  GI50: 37.6 µM
  TGI: > 100 µM
COLO 205 colon
  GI50: 31.2 µM
  TGI: > 100 µM
IGROV1 ovarian
  GI50: 30.6 µM
  TGI: > 100 µM
DLD-1 colon
  GI50: 39.6 µM
  TGI: > 100 µM
CAKI-1 renal
  GI50: 30.6 µM
  TGI: > 100 µM
HOP-92 NSCLC
  GI50: 25 µM
  TGI: 98.3 µM
M14 melanoma
  GI50: 23 µM
  TGI: 45.8 µM
OVCAR-8 ovarian
  GI50: 34.1 µM
  TGI: > 100 µM
EKVX NSCLC
  GI50: 31.1 µM
  TGI: > 100 µM
DMS 273 small cell lung
  GI50: 26.9 µM
  TGI: 97 µM
OVCAR-3 ovarian
  GI50: 17.5 µM
  TGI: > 100 µM
HCT-15 colon
  GI50: 31.7 µM
  TGI: > 100 µM
NCI-H460 lung
  GI50: 29.4 µM
  TGI: > 100 µM
UACC-257 melanoma
  GI50: 33.6 µM
  TGI: 99.3 µM
SW-620 colon
  GI50: 41.1 µM
  TGI: > 100 µM
ACHN renal
  GI50: 37.8 µM
  TGI: > 100 µM
LOX IMVI melanoma
  GI50: 22.6 µM
  TGI: 58 µM
RPMI-8226 leukemia
  GI50: 39.2 µM
  TGI: > 100 µM
A498 renal
  GI50: 24.5 µM
  TGI: > 100 µM
HL-60(TB) leukemia
  GI50: 16.5 µM
  TGI: 53.6 µM
MOLT-4 leukemia
  GI50: 23.8 µM
  TGI: 90.2 µM
K-562 leukemia
  GI50: 34.4 µM
  TGI: > 100 µM
NCI-H522 lung
  GI50: 23 µM
  TGI: 80.1 µM
UACC-62 melanoma
  GI50: 28.7 µM
  TGI: > 100 µM
NCI-H226 lung
  GI50: 13.3 µM
  TGI: 45.6 µM
M19-MEL melanoma
  GI50: 25 µM
  TGI: 69.8 µM
SF-268 CNS
  GI50: 24.8 µM
  TGI: 85.1 µM
U251 CNS
  GI50: 38.9 µM
  TGI: > 100 µM
UO-31 renal
  GI50: 19.8 µM
  TGI: 56.7 µM
KM20L2 colon
  GI50: 39.1 µM
  TGI: > 100 µM
CCRF-CEM leukemia
  GI50: 16.4 µM
  TGI: 95.3 µM
SK-MEL-28 melanoma
  GI50: 27.3 µM
  TGI: 85.1 µM
SNB-19 CNS
  GI50: 35.9 µM
  TGI: > 100 µM
OVCAR-4 ovarian
  GI50: 45.1 µM
  TGI: > 100 µM
KM12 colon
  GI50: 38.8 µM
  TGI: > 100 µM
SNB-75 CNS
  GI50: 3.78 µM
  TGI: 17.2 µM
SF-539 CNS
  GI50: 23.8 µM
  TGI: 62.2 µM

## O=C(N/N=C/c1cc(Cl)cc(Cl)c1[O-])c1ccccc1O.O=C(N/N=C/c1cc(Cl)cc(Cl)c1[O-])c1ccccc1O.[Cl-].[Fe+3]
SK-OV-3 ovarian
  TGI: 29.2 µM
NCI-H23 lung
  GI50: 7.73 µM
  TGI: 25.7 µM
OVCAR-5 ovarian
  TGI: 26 µM
SK-MEL-2 melanoma
  GI50: 17.1 µM
  TGI: 37.1 µM
RXF 393 renal
  TGI: 23.7 µM
HCC-2998 colon
  TGI: 23.5 µM
SF-295 CNS
  TGI: 22.4 µM
TK-10 renal
  TGI: > 100 µM
A549 NSCLC
  GI50: 10.2 µM
  TGI: 63.8 µM
HOP-62 NSCLC
  TGI: 36.2 µM
HT29 colon
  TGI: 34.8 µM
HCT-116 colon
  GI50: 5.78 µM
  TGI: 18.9 µM
COLO 205 colon
  GI50: 19.4 µM
  TGI: 44.4 µM
IGROV1 ovarian
  TGI: 48.4 µM
CAKI-1 renal
  TGI: > 100 µM
HOP-92 NSCLC
  GI50: 1.95 µM
  TGI: 7.18 µM
M14 melanoma
  TGI: 35.3 µM
OVCAR-8 ovarian
  TGI: 25.9 µM
EKVX NSCLC
  GI50: 29.3 µM
  TGI: 88.3 µM
OVCAR-3 ovarian
  TGI: 27 µM
HCT-15 colon
  TGI: 18.7 µM
NCI-H460 lung
  TGI: 36 µM
UACC-257 melanoma
  TGI: 51.2 µM
SW-620 colon
  TGI: 29.9 µM
ACHN renal
  TGI: 38.5 µM
LOX IMVI melanoma
  TGI: 30.9 µM
HL-60(TB) leukemia
  TGI: 5.22 µM
NCI-H522 lung
  TGI: 31.5 µM
UACC-62 melanoma
  TGI: 33.6 µM
NCI-H226 lung
  TGI: 20.5 µM
SF-268 CNS
  TGI: 69.8 µM
SR leukemia
  TGI: 25.3 µM
UO-31 renal
  TGI: 31.7 µM
KM20L2 colon
  GI50: 10.7 µM
  TGI: 24 µM
SNB-19 CNS
  TGI: 22.7 µM
OVCAR-4 ovarian
  TGI: 26.6 µM
KM12 colon
  GI50: 12.6 µM
  TGI: 37.9 µM
SNB-75 CNS
  TGI: 60.4 µM
SF-539 CNS
  GI50: 10.5 µM
  TGI: 27.9 µM
